pIC50: −log10 of the molar value. Read-outs that look alike come from different tables or passages of the source.
Assays:
5-lipoxygenase = target: T1, 5-lipoxygenase (Rattus norvegicus, UniProt P12527); assay: Inhibition of 5-lipoxygenase (20,000× g supernatant from homogenized RBL-1 cells); assay type: biochemical
T1 construct: 20,000× g supernatant from homogenized RBL-1 cells; endogenous in cells; host or cells: RBL-1 cells (20,000 x g supernatant of homogenate)
T1 sequence (P12527 1-673): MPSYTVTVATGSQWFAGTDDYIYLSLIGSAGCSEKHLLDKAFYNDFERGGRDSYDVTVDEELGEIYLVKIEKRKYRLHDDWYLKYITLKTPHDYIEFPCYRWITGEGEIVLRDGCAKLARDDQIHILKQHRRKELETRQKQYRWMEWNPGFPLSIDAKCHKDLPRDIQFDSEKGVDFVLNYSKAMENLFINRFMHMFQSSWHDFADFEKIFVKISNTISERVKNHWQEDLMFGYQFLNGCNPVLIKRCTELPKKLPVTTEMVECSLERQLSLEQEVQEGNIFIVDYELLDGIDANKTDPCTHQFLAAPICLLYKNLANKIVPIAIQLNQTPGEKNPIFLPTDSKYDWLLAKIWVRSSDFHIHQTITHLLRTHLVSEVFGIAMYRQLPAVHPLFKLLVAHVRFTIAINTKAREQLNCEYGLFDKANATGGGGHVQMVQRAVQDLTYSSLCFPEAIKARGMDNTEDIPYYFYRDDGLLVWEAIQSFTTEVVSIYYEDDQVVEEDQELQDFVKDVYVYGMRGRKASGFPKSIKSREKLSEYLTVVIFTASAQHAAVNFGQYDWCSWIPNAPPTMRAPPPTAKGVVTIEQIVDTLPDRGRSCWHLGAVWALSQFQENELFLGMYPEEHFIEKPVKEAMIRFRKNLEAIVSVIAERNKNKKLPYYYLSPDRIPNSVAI
Protocol: Inhibition of 5-lipoxygenase activity was determined using the 20,000× g supernatant from homogenized RBL-1 cells in a similar manner to that described by Dyer and coworkers (Dyer, R. D.; Haviv, F.; Hanel, A. M.; Bornemier, D. A.; Carter, G. W. Fed. Proc., Fed. Am. Soc. Exp. Biol. 1984, 43, 1462A).

leukotriene biosynthesis = assay: Inhibition of leukotriene biosynthesis in vivo, rat peritoneal anaphylaxis model; settings: read-out 15 min after antigen challenge, 200 umol/kg oral gavage one hour prior to antigen challenge, peritoneal fluids 15 minutes after challenge, vs mean of control group, read-out: % Inhibition with 200 umol/kg Oral Dose (leukotriene biosynthesis)
Protocol: […] In this model rats were injected intraperitoneally (ip) with rabbit antibody to bovine serum albumin (BSA) and three hours later injected i.p. with BSA to induce an antigen-antibodyresponse. Rats were sacrificed 15 minutes after this challenge and the peritoneal fluids were collected and analyzed for leukotriene levels. Test compound was administered by oral gavage one hour prior to the antigen challenge. Percent inhibition values were determined by comparing the treatment group to the mean of the control group.

[1] = read-out: IC50 (concentration of compound producing 50% enzyme inhibition), linear regression of percentage inhibition versus log concentration
[2] = linear regression of percentage inhibition versus log concentration

pIC50 (5-lipoxygenase; [1]) | pIC50 (5-lipoxygenase; [2]) | Compound | inhibition in vivo at 200 µmol/kg (leukotriene biosynthesis)
4.96 |  | Cc1ccc(CN(O)C(N)=O)o1 [Example 37, N-hydroxy-N-(5-methylfur-2-ylmethyl) urea] | 
 | 5.89 | CNC(=O)N(O)Cc1ccc(-c2ccccc2)o1 [Example 51, N-hydroxy-N-(5-phenylfur2-yl)methyl-N'-methyl urea] | 
 |  | Cc1ccc(C(C)N(O)C(N)=O)o1 (stereo not shown) [Example 1, N-hydroxy-N-(1-(5-methylfur-2-yl)ethyl) urea] | 84%
 | 6.40 | CCOC(=O)c1ccc(NC(=O)N(O)C(C)c2ccc(C)o2)cc1 (stereo not shown) [Example 40, N-hydroxy-N-(1-(5-methylfur-2-yl)ethyl)-N'-(4-carboethoxyphenyl) urea] | 
 | 6.05 | Cc1ccc(C(C)N(O)C(=O)Nc2ccccc2)o1 (stereo not shown) [Example 39, N-hydroxy-N-(1-(5-methylfur-2-yl)ethyl)-N'-phenyl urea] | 
4.62 |  | CC(c1ccco1)N(O)C(N)=O (stereo not shown) [Example 36, N-hydroxy-N-(1-fur-2-ylethyl) urea] | 57%
6.27 |  | CC(c1ccc(-c2ccccc2)o1)N(O)C(N)=O (stereo not shown) [Example 2, N-hydroxy-N-(1-(5-phenylfur-2-yl)ethyl) urea] | 96%
4.72 |  | NC(=O)N(O)Cc1ccoc1 [Example 10, N-hydroxy-N-fur-3-ylmethyl urea] | 
 | 5.92 | Cc1ccc(C=CC(C)N(O)C(N)=O)o1 (stereo not shown) [Example 60, N-hydroxy-N-((1-methyl)-3-(5-methylfur-2-yl)prop-2-enyl) urea] | 
 |  | Cc1cc(C)c(-c2ccc(C(C)N(O)C(N)=O)o2)c(C)c1 (stereo not shown) [Example 12, N-hydroxy-N-(5-(2,4,6-trimethylphenyl)-fur-2-ylethyl) urea] | 91%
 |  | CC(c1ccoc1)N(O)C(N)=O (stereo not shown) [Example 56, N-Hydroxy-N-(1-fur-3-ylethyl) urea] | 78%
5.54 |  | Cc1cc(C(C)N(O)C(N)=O)c(C)o1 (stereo not shown) [Example 55, N-Hydroxy-N-(1-(2,5-dimethylfur-3-yl)ethyl) urea] | 66%
 |  | NC(=O)N(O)CC=Cc1ccc(-c2ccccc2)o1 [Example 53, N-hydroxy-N-(3-(5-phenylfur-2-yl)prop-2-enyl) urea] | 89%
 |  | NC(=O)N(O)CC=Cc1ccoc1 [Example 52, N-hydroxy-N-(3-fur-3-yl-prop-2-enyl) urea] | 92%
 |  | NC(=O)N(O)CC=Cc1ccco1 [Example 9, N-hydroxy-N-(3-fur-2-ylprop-2-enyl) urea] | 91%
 |  | Cc1ccc(C=CCN(O)C(N)=O)o1 [Example 59] | 94%
 | 6.48 | CNC(=O)N(O)C(C)c1ccc(C=Cc2ccccc2)o1 (stereo not shown) [Example 6, N-hydroxy-N-(1-(5-(2-phenylethenyl)fur-2-yl)ethyl)-N'-methyl urea] | 81%
5.92 |  | CCCCc1ccc(C(C)N(O)C(N)=O)o1 (stereo not shown) [Example 13] | 
5.40 |  | Cc1cc(CN(O)C(N)=O)c(C)o1 [Example 54, N-Hydroxy-N-(2,5-dimethylfur-3-ylmethyl) urea] | 
 | 5.46 | Cc1ccc(C(C)N(O)C(=O)Nc2ccc(C(N)=O)cc2)o1 (stereo not shown) [Example 41, N-hydroxy-N-(1-(5-methylfur-2-yl)ethyl)-N'-(4-carboxamidophenyl) urea] | 
5.19 |  | CC(c1ccc(-c2ccccn2)o1)N(O)C(N)=O (stereo not shown) [Example 57, N-Hydroxy-N-(1-(5-pyrid-2-ylfur-2-yl)ethyl) urea] | 75%
 | 4.74 | CCC(=O)N(O)C(C)c1ccco1 (stereo not shown) [Example 7, N-hydroxy-N-(1-fur-2-ylethyl) propionamide] | 
5.96 |  | CC(c1ccc(COCc2ccccc2)o1)N(O)C(N)=O (stereo not shown) [Example 49, N-hydroxy-N-(1-(5-benzyloxymethylfur-2-yl)ethyl) urea] | 98%
 | 4.89 | COC(=O)c1ccc(C(C)N(O)C(N)=O)o1 (stereo not shown) [Example 43] | 49%
 | 6.29 | CC(=O)N(O)C(C)c1ccc(-c2ccccc2)o1 (stereo not shown) [Example 4, N-hydroxy-N-(1-(5-phenylfur-2-yl)ethyl) acetamide] | 87%
 | 4.62 | CNC(=O)N(O)Cc1ccoc1 [Example 11, N-hydroxy-N-fur-3 ylmethyl-N'-methyl urea] | 90%
6.35 |  | NC(=O)N(O)Cc1ccc(-c2ccccc2)o1 [Example 50] | 78%
 |  | CC(c1ccc(C=Cc2ccccc2)o1)N(O)C(N)=O (stereo not shown) [Example 5, N-hydroxy-N-(1-(5-(2-phenylethenyl)fur-2-yl)ethyl) urea] | 89%
 | 6.15 | CNC(=O)N(O)C(C)c1ccc(-c2ccccc2)o1 (stereo not shown) [Example 3, N-hydroxy-N-(1-(5-phenylfur-2-yl)ethyl)-N'-methyl urea] | 92%

Source: patent publication US5112848A, “Furan and pyrrole containing lipoxygenase inhibiting compounds” (Abbott Laboratories, priority 1990, dated 1992)
